The source of these data is article PMC7827406, “Structure–Activity Relationship (SAR) Study of Spautin-1 to Entail the Discovery of Novel NEK4 Inhibitors” (International Journal of Molecular Sciences, 2021).

What all share (assay): biochemical
What all share (parameters): Eurofins KinaseProfiler full panel at Km ATP, residual kinase activity (%) relative to DMSO

In one experiment the target is T1, Pim-3(h) (Homo sapiens, UniProt Q86V86).
T1 construct: gene PIM3
Summed up:
(§1)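 Compounds screened at 10 µM in radiometric kinase activity assays at Km ATP, reported as remaining kinase activity (%). A KINOMEscan competition-binding screen at 10 µM measured DNA-tagged kinase retained on immobilized active-site ligand by qPCR.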

A further experiment concerns the target T2, PRK2(h) (Homo sapiens, UniProt Q16513).
T2 construct: gene PKN2
The method, boiled down:
as §1

The next experiment has as its target T3, PKCε(h) (Homo sapiens, UniProt Q02156).
T3 construct: gene PRKCE
T3 sequence (Q02156 1-737): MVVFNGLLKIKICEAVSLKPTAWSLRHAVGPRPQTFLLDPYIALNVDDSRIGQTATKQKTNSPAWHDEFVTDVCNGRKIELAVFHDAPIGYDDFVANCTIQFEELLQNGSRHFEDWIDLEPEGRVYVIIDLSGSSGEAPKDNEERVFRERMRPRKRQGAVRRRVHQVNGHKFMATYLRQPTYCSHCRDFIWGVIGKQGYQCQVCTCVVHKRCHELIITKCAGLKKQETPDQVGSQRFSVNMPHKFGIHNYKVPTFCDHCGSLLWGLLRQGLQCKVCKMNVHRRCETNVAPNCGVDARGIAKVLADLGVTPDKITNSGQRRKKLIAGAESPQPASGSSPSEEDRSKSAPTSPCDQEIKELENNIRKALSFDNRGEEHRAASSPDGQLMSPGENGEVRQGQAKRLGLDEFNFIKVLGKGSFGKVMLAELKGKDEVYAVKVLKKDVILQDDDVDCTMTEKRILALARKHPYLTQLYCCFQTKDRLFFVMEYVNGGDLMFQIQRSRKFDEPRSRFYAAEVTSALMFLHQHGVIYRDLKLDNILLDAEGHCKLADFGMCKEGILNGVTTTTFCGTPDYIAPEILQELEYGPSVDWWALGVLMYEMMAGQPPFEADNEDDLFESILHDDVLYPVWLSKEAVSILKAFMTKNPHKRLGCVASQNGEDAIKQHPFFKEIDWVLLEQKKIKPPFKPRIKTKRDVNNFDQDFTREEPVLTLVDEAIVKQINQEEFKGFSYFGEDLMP
Summed up:
as §1

For experiment [1], the target named is T4, PI3 Kinase (p110a(H1047R)/p85a)(h) (Homo sapiens, UniProt P42336, H1047R).
T4 construct: gene PIK3CA
The method, boiled down: as §1

The next experiment deals with T5, cKit(V560G)(h) (Homo sapiens, UniProt P10721, V560G).
T5 construct: gene KIT
The method, boiled down: as §1

In another experiment the target is T6, IRR(h) (Homo sapiens, UniProt P14616).
T6 construct: gene INSRR
Summed up:
as §1

The target in another experiment is T7, PKD2(h) (Homo sapiens, UniProt Q9BZL6).
T7 construct: gene PRKD2
T7 sequence (Q9BZL6 1-878): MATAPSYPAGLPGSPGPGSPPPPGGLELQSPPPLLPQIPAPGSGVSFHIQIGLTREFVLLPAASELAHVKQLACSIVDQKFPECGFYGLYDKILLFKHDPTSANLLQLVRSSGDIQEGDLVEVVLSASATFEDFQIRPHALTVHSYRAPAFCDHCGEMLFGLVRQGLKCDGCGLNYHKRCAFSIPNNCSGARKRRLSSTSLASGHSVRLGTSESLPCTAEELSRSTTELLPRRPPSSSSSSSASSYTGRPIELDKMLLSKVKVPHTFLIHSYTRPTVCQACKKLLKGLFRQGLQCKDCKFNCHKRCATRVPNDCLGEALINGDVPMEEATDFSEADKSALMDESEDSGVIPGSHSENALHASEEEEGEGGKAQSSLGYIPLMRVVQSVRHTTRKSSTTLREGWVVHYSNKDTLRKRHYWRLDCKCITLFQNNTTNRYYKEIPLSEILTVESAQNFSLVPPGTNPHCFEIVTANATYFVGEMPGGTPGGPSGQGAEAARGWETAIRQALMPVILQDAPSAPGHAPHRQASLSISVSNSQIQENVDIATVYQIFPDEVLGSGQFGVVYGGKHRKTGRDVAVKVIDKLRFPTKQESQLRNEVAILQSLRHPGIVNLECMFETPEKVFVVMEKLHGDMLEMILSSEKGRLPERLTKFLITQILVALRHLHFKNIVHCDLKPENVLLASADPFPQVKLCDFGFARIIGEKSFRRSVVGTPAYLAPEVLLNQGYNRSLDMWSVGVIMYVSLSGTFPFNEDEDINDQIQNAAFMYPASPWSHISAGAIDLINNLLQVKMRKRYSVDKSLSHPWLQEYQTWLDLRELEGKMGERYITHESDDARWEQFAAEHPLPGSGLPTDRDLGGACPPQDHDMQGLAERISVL
Summed up:
as §1

A further experiment addresses STK33(h) (Homo sapiens, UniProt Q9BYT3). Summed up: as §1
Setting [2] is: read-out: Residual activity (%) Spautin-1 5aa.
Setting [3] is: read-out: Residual activity (%) 5as.
Setting [4] is: read-out: Residual activity (%) 5at.
Where [5] appears, read: read-out: Residual activity (%) 5ay.

Each structure is given as a SMILES string. Where two headings read alike, the source gives them in different places.

Chain of STK33(h) (Q9BYT3 whole entry): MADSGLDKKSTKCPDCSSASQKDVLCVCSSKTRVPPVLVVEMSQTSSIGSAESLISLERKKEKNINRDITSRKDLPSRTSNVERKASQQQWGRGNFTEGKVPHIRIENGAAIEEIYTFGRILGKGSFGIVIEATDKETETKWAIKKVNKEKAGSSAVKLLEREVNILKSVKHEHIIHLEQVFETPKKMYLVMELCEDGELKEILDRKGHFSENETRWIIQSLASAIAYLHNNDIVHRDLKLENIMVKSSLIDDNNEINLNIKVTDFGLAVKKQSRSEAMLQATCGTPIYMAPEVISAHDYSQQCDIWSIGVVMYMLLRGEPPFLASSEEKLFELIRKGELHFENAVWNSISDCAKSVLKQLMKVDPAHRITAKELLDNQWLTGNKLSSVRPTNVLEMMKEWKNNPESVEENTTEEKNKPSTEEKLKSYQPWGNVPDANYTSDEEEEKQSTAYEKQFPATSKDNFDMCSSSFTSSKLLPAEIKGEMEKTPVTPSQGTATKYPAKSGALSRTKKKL
T6 sequence (P14616 whole entry): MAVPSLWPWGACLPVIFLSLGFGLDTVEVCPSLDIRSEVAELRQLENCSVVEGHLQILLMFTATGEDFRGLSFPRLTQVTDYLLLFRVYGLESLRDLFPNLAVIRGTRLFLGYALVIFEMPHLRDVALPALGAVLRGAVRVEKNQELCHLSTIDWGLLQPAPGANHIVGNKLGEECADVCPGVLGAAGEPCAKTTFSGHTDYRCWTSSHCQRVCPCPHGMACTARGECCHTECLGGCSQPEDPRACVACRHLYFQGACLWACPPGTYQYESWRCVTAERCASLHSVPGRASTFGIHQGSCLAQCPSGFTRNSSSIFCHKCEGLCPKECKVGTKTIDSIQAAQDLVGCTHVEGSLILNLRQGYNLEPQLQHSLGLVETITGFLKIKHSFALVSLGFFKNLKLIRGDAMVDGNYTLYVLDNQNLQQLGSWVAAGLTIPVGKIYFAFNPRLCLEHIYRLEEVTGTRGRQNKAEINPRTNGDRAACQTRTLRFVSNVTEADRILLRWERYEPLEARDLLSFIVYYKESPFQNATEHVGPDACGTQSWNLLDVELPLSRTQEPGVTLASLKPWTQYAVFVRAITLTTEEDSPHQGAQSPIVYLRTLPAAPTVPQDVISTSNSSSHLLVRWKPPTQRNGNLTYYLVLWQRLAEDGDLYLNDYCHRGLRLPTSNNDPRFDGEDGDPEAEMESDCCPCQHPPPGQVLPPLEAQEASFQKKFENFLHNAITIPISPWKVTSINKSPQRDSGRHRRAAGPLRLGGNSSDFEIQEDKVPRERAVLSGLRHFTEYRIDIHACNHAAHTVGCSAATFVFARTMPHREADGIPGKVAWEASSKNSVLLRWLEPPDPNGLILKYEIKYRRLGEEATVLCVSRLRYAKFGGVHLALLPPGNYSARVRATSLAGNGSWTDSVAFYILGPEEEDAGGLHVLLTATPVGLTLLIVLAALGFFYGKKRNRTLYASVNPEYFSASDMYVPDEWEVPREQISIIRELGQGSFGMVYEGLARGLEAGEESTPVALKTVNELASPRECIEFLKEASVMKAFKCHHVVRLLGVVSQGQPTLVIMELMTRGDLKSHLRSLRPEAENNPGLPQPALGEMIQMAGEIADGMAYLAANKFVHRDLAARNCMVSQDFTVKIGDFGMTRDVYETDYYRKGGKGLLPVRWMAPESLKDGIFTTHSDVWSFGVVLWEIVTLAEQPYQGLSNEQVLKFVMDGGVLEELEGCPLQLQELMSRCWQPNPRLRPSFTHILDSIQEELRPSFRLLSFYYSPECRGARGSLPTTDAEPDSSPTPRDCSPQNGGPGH
T2 sequence (Q16513 whole entry): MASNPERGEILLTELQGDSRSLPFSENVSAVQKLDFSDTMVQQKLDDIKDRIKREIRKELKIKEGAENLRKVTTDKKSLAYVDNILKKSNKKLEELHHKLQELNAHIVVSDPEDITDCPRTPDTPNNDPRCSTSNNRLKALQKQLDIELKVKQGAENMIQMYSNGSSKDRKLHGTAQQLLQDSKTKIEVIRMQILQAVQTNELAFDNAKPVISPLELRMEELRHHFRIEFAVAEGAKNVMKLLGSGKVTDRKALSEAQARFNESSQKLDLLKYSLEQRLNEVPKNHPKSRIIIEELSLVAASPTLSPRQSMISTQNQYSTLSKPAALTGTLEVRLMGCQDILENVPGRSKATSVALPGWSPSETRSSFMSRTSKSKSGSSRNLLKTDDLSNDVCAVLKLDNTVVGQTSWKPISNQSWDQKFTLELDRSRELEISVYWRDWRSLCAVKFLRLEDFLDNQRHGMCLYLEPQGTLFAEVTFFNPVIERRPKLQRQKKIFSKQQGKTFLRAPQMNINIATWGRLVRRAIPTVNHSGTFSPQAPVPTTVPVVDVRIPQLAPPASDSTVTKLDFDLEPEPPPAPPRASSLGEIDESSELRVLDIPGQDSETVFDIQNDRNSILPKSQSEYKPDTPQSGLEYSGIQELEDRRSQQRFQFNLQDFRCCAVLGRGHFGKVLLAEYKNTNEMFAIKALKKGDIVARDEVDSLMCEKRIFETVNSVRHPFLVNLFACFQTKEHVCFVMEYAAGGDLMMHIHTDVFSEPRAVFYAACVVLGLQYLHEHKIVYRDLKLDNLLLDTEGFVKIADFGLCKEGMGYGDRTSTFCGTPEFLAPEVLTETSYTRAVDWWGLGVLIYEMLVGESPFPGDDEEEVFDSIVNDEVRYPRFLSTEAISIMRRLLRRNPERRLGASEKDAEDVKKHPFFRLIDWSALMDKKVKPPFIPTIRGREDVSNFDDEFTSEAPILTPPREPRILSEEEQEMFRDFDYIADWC
T5 sequence (P10721 whole entry V560G): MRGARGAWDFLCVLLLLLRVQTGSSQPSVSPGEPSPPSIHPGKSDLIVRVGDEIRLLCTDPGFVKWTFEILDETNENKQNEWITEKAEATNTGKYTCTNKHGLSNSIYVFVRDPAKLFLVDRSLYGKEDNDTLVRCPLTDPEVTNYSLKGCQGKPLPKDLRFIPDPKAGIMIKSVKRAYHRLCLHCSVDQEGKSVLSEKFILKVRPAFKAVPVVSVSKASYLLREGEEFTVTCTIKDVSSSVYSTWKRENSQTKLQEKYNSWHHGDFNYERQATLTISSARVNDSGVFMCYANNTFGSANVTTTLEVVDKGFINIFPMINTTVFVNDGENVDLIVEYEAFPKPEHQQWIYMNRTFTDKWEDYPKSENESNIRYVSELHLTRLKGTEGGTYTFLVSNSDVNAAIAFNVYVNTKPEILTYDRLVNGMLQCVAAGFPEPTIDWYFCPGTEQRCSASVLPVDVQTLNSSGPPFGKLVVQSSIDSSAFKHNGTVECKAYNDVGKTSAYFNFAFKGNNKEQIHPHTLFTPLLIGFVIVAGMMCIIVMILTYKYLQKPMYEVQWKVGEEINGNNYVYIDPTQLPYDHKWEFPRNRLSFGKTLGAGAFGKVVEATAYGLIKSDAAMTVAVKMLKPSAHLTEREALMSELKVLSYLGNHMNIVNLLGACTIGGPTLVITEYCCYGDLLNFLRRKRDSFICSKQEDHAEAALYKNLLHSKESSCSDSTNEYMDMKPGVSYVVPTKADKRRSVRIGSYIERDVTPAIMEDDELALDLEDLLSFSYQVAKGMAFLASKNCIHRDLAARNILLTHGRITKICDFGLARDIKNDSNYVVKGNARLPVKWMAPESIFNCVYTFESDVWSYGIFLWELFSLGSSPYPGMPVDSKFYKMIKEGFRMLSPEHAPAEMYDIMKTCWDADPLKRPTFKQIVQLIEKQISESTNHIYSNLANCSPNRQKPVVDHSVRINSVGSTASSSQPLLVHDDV

With `Fc1ccc(CNc2ncnc3ccc(F)cc23)cc1` [5aa, 6-Fluoro-N-(4-fluorobenzyl)-4-Quinazolinamine], the remaining activity at 10 µM is 123% at Pim-3(h) (setting [2]); 108% at PRK2(h) (setting [2]); 95% at PKCε(h) (setting [2]); 99% in experiment [1] (setting [2]); 85% at cKit(V560G)(h) (setting [2]); 93% at IRR(h) (setting [2]). In addition, the remaining activity at 10 µM at PKD2(h) (setting [2]) stood at 106%.

`Fc1ccc(CCNc2ncnc3ccc(F)cc23)cc1` [5as, 6-Fluoro-N-[2-(4-Fluorophenyl)Ethyl]-4-Quinazolinamine]: the remaining activity at 10 µM is 92% at Pim-3(h) (setting [3]); 90% on STK33(h) (setting [3]); 104% at PRK2(h) (setting [3]); 93% at PKCε(h) (setting [3]); 97% in experiment [1] (setting [3]); 105% at cKit(V560G)(h) (setting [3]). The remaining activity at 10 µM on IRR(h) (setting [3]) was 87%; at PKD2(h) (setting [3]) it was 74%.

Consider `Fc1ccc2ncnc(NCCc3ccc(Cl)cc3)c2c1` [5at, N-[2-(4-Chlorophenyl)Ethyl]-6-Fluoro-4-Quinazolinamine], for which the remaining activity at 10 µM at Pim-3(h) (setting [4]) was found to be 97%; on STK33(h) (setting [4]), 100%; at PRK2(h) (setting [4]), 96%; on PKCε(h) (setting [4]), 86%; in experiment [1] (setting [4]), 94%; on cKit(V560G)(h) (setting [4]) it was 90%. The remaining activity at 10 µM at IRR(h) (setting [4]) came to 79%; on PKD2(h) (setting [4]), 76%.

Turning to `COc1ccc2ncnc(Nc3cccc(F)c3)c2c1` [5ay, N-(3-Fluorophenyl)-6-Methoxy-4-Quinazolinamine], the remaining activity at 10 µM on Pim-3(h) (setting [5]) is 96%; on STK33(h) (setting [5]), 77%; at PRK2(h) (setting [5]), 95%; at PKCε(h) (setting [5]), 93%; in experiment [1] (setting [5]) it was 96%; at cKit(V560G)(h) (setting [5]), 106%. In addition, the results for the remaining activity at 10 µM at IRR(h) (setting [5]) and at PKD2(h) (setting [5]) were 99% and 77%, respectively.
